Measurements from a melting point compilation (Tetko et al.; mined from patent text by program, amines drawn as free bases though some values may be those of a salt).
Structures can show the parent of a compound that is named as a salt. Residues, ends and D or L forms follow the SMILES beside them. *: point of attachment. Tfa = O=C(C(F)(F)F)*; NHPh = c1ccc(N*)cc1

Row | Compound | melting point [°C]
1 | O=c1c2cc(O)cc(O)c2cc2n1CCCC2 | 214 to 215
2 | CN(C(=O)c1ccc2nonc2c1)C1CCCCCC1 | 80 to 81
3 | CCOC(=O)c1cccc(C(=O)CC)c1OCCN(CC)CC | 103 to 105
4 | CCCCCCCCCCCCCCCC(=O)NC#N | 62 to 65
5 | CC(C)(C)c1cc(/C=C/C(=O)CC(=O)/C=C/c2cc(C(C)(C)C)c(O)c(C(C)(C)C)c2)cc(C(C)(C)C)c1O | 192 to 196
6 | CSc1ncnn1C[C@]1(c2ccc(F)c(F)c2)O[C@@H]1c1ccccc1Cl (relative stereo) | 79 to 81
7 | CCC(C)Cc1c(-c2ccc(C(N)=S)cc2Cl)c(C)nc2ncnn12 (centres undefined) | 173 to 177
8 | CCOC(=O)C1=C(CN2C(=O)c3ccccc3C2=O)NC(CN2C(=O)c3ccccc3C2=O)=C(C(=O)OCC)C1c1ccccc1Cl | 162 to 164
9 | O=C(O)CCC(=O)Nc1ccc(N2CCN(C3(c4ccc(-c5ccccc5)cc4)C(=O)NC(=O)NC3=O)CC2)cc1 | 246 to 247
10 | CCc1nnc(-c2ccc(OC)cc2)n1-c1ccc(OC)cc1 | 122
11 | O=C(O)c1[nH]c2ccc(Cl)cc2c1S(=O)(=O)c1nccs1 | 260 to 261
12 | c1ccc(C2=NC(c3ccccn3)(c3ccccn3)N=C2c2ccccc2)cc1 | 214 to 216
13 | CCCCCCCCCc1ccc(O)c(C=NO)c1 | 170
14 | O=[N+]([O-])c1ccc(S)c(Cl)c1 | 77 to 78
15 | CC(C)(C)OC(=O)NCc1ccc(CNC(=O)[C@@H](CCCNC(N)=N[N+](=O)[O-])NC(=O)C(c2ccccc2)c2ccccc2)cc1 | 198
16 | CCCC[C@]1(CC)CS(=O)(=O)c2cc(OC)c(Br)cc2[C@@H](c2ccccc2)N1O | 202 to 204
17 | O=C(NC(CS)Cc1ccccc1)N1CCCC1 (single isomer, unassigned; (+)) | 92 to 94
18 | O=c1[nH]c2ccccc2cc1-c1csc(-c2cccnc2)n1 | 197 to 198
19 | C=CCc1ccc(OCc2ccc(OC)cc2)cc1 | 59 to 61

Row | Compound | melting point [°C]
20 | CCNc1nnc(C(C)(C)C)c(=O)n1N | 177
21 | COC(=O)C1Cc2cc(-c3ccc(C(C)O)cc3)ccc2O1 (centres undefined) | 98 to 100
22 | C=CCC(C#N)(C#N)Cc1ccc(C(F)(F)F)cc1 | 80.2
23 | CCCn1c(COCC)nc2c(N)nc3cc(OCCN4CCOCC4)ccc3c21 | 191 to 192
24 | CCOc1ccc(-c2ccc(=O)[nH]n2)cc1OC | 172
25 | COc1ccc(-c2nnc(S)nc2-c2ccc(OC)cc2)cc1 | 228 to 232
26 | CCS(=O)(=O)c1cc(C(=O)NCC2CCCN2CC2CCC2)c(OC)cc1N (centres undefined) | 170
27 | Cc1cc(Oc2ncc(Cl)cc2Cl)cc(C)c1N=C=NC(C)(C)C | 69 to 71
28 | CCOC(=O)c1cn(CC)c2ncnn2c1=O | 129 to 131
29 | NC(=O)c1ccc(F)c(-c2cccc3cc(Cc4cccc(C(F)(F)F)c4)sc23)c1 | 139 to 140
30 | Cc1cc(-c2c(F)c(F)c3c(=O)c(C(=O)O)cn4c3c2OC[C@@H]4C)cc(C)n1 | 307 to 310
31 | Cc1nc2c(n1C)CC(C(=O)N(C)C)CC2=O (centres undefined) | 190 to 194
32 | COC(=O)c1cnc(Cl)cc1NN | 163
33 | O=C(CCCCCCCCc1ccccc1)NO | 75 to 77
34 | CCCCc1nc(SCCF)c(C(=O)O)n1Cc1ccc(-c2ccccc2C(=O)O)cc1 | 185 to 186
35 | CNC(=O)N(C)c1nnc(C(C)(C)CCl)s1 | 159 to 161
36 | CCCCCCCCOc1ccc2nc(C(=O)NCC(=O)O)c(O)cc2c1 | 153 to 155
37 | O=C1N(Cc2ccccc2)Cc2cnc(Nc3ccc(N4CCCCC4)cn3)nc2N1C1CCCC1 | 194 to 196
38 | C#CCNC(=O)N1CC(Oc2ccc(C(F)(F)F)cc2)C1 | 135 to 137

Row | Compound | melting point [°C]
39 | COc1cccc(CC(=O)N2CCN(c3cccc(C(F)(F)F)c3)CC2)c1 | 99 to 101
40 | CN1c2ccc(-c3ccc4ccccc4c3)cc2Sc2cc(-c3ccc4ccccc4c3)ccc21 | 276 to 281
41 | CN(C#N)C(=O)CCCCC(=O)N(C)C#N | 86.1 to 87.8
42 | CCCCCCCCCCCCCCCCN(c1ccccc1)S(=O)(=O)c1ccc(Nc2cc(=O)n(-c3c(C)cc(Cl)cc3Cl)n2C(=O)OCC)cc1 | 85
43 | CCOC(=O)C(=O)Nc1ccc2c(=O)n3c(nc2c1)C(=Cc1ccc(OC)cc1OC)CC3 | 285 to 288
44 | CCOC(=O)CC(C(=O)c1ccc(OC2CCN(C(=O)OC(C)(C)C)CC2)cc1)c1ccccn1 (centres undefined) | 118 to 120
45 | CC(CCCO)C1CCC2C3CCC4CC(O)CCC4(C)C3CC(O)C12C (centres undefined) | 110 to 116
46 | CN1C(=O)C2(CCN(Cc3ccccc3)CC2)N=C(c2ccccc2)c2cc(Cl)ccc21 | 169 to 170
47 | CC(=O)OC1CCC2(C)C(CCC3C2CCC2(C)C(=O)CCC32O)C1 (centres undefined) | 182 to 184
48 | C[C@@H]1CN(C(=O)OC(C)(C)C)C[C@H]2Cc3cc(Br)c(CO)nc3N21 | 110 to 112
49 | Nc1c(-c2ccc(-c3ccccc3)cc2)nc2c(Cl)cc(Cl)cc2c1C(=O)O | 244 to 245
50 | O=C(O)c1ccc(CN2C(=O)c3ccc(C(=O)O)cc3C2=O)cc1 | 365 to 366
51 | O=C(CCCCCCS(=O)c1ccc(Cl)cc1)NO (centres undefined) | 103 to 105
52 | CCCC(=O)Nc1n[nH]c2cc(-c3ccc(OC(F)(F)F)cc3)ccc12 | 234
53 | CC(C)(C)OC(=O)Nc1ccc(-c2ccccc2)cc1[N+](=O)[O-] | 119 to 121
54 | COc1c(C)c(C)c(OC)c(CC[C@@]2(C)CO2)c1C | 47 to 48
55 | O=C(O)c1n[nH]c(=O)c2cc(F)ccc12 | 222 to 224
56 | CN(C)c1ccc(-c2nc(N(C)C)nnc2-c2ccc(F)cc2)cc1 | 157 to 160

Other lines, results leading:

Row | melting point [°C] | Compound
57 | 219 to 220 | CCc1cc(Br)c2c(c1)NC(=O)C2=O
58 | 194 to 195 | CCNc1ncc2ccc(=O)n(C)c2n1
59 | 124 to 127 | COc1ccc(-c2nc(CC(N)=O)sc2-c2ccc(OC)cc2)cc1
60 | 98 to 99 | CC(C)CCCOc1c(-c2ccc(S(C)(=O)=O)cc2)cnn(-c2ccc(F)c(F)c2)c1=O
61 | 111 to 113 | COCCOC[C@H](CC1(C(=O)O)CCCC1)C(=O)Oc1ccc2c(c1)CCC2
62 | 205 to 207 | CC1OC2(CCN(c3nc(=O)c4cc(C(F)(F)F)cc([N+](=O)[O-])c4s3)CC2)OC1C (centres undefined)
63 | 59 to 61 | Nc1cc(N=c2sc(=S)n3n2CCCC3)c(F)cc1Cl
64 | 248 to 249 | Cc1ccc(-c2nc(C)nn2-c2ccc(S(N)(=O)=O)cc2)cc1
65 | 204 to 207 | C[C@H](NC(=O)C(F)(F)F)C(=O)N1CCC[C@H]1C(=O)Nc1ccccc1 (Tfa-Ala-Pro-NHPh)
66 | 167 to 168 | COc1ccc(CONC(=O)Cn2nnnc2S)cc1
67 | 97 to 100 | COc1cc(C=CC(=O)CC(=O)C(F)(F)F)ccc1O
68 | 49 to 50 | CCOC(=O)COc1c(OC2CCCCO2)cccc1[N+](=O)[O-] (centres undefined)
69 | 191 to 192 | CC12CCC(=O)C=C1CCC1C3CC(OCC4CO4)C(O)(C(=O)CO)C3(C)CC(O)C12F (centres undefined)
70 | 134 to 136 | CC(=O)Nc1cccc(-n2cccc2)c1
71 | 70 to 74 | Cc1ccc(C(=O)CC2CCCN(C)C2)cc1 (centres undefined)
72 | 110 to 112 | OC(c1ccc2cc(-c3n[nH]c4ccsc34)[nH]c2c1)(C1CC1)C1CC1
73 | 72 to 75 | COC1=C(OC)C(=O)C2=C(CC(CCCCOc3ccc(CO)cc3)C2)C1=O
74 | 224 to 228 | COc1ccc(C(=O)Nc2cccnc2)c2c3cc(Cl)ccc3n(Cc3ccc(F)cc3)c12
75 | 196 | Cc1ccc(-c2nc(C(F)(F)F)cn2-c2ccc(S(C)(=O)=O)cc2)nc1
76 | 151 to 153 | O=C(c1cc(C(F)(F)F)cc(C(F)(F)F)c1)N1CCNCCC1c1ccccc1 (centres undefined)
77 | 54 to 55 | Cc1cnc(CO)c(Cl)c1N1CCOCC1
78 | 103 to 104 | CCOc1cccc(-c2cc3n(n2)CCc2ccccc2-3)c1

Row | melting point [°C] | Compound
79 | 242 to 243 | Cc1ccc(S(=O)(=O)c2ccc3c(c2)[C@@H](N2CCCC2=O)[C@H](O)C(C)(C)O3)cc1 (relative stereo)
80 | 228 to 229 | COc1c(F)cc2c(O)c(C(=O)NCc3ccc(Cl)cc3)cnc2c1OC
81 | 194 to 195 | CN1CCN(c2ncc(-c3cnc4c(c3)N(Cc3c(F)ccc(F)c3Cl)CCN4)cn2)CC1
82 | 133 to 134 | CC(=O)OCc1cn(C(c2ccccc2)(c2ccccc2)c2ccccc2)cn1
83 | 78 | CCOC(=O)c1ccccc1NC(=O)C(F)(F)F
84 | > 280 | CNc1c(F)c(O)c2c(=O)c(C(=O)O)cn(-c3cc(N)c(F)cc3F)c2c1C
85 | 205 to 206 | CCOC(=O)C1=C(C(C)C)Nc2n[nH]cc2C1c1ccccc1[N+](=O)[O-] (centres undefined)
86 | 138 to 140 | CN=C(NC#N)NCCSCc1c[nH]cn1
87 | 141 to 142 | CC(Oc1ccc(-c2ccc(Cl)cc2)cc1)(C(N)=O)C(F)(F)F (centres undefined)
88 | 80 to 81 | COc1ccc2c(c1)C1=C(SCC3(CCN(CC(O)COc4ccc(F)cc4)CC3)O1)C(=O)C2=O (centres undefined)
89 | 82 to 88 | COC(=O)c1cc(C23CC4CC(CC(C4)C2)C3)c(OC)cc1F
90 | 78 to 81 | Fc1ccc(C(c2ccncc2)C2CCCCC2)cc1 (centres undefined)
91 | 155 to 159 | COc1cc(C(O)C(CO)[N+](=O)[O-])cc(OC)c1OC (centres undefined)
92 | 209 to 210 | CC1(C)Cc2c(c(N3CCOCC3)nc3sc4c(NCC(=O)N5CCOCC5)ncnc4c23)CO1
93 | 51 to 56 | CCCCCCCCCCCCCCCCCC(=O)OC1CC(C)(C)N(OCC(C)(C)O)C(C)(C)C1
94 | 271 to 273 | Cc1cc(NC(=O)c2[nH]c(C)c(-c3nc4ccc(C(=O)c5ccccc5)cc4[nH]3)c2C)no1
95 | 113 | COc1ccc(N=C(C#Cc2ccccc2)N2CCN(Cc3ccc(C)cc3)CC2)cc1Cl
96 | 132 to 133 | O=C(O)CCCCCc1nc2ccccc2n1-c1ccccc1
97 | 82 to 85 | N#Cc1cccc(C(Oc2ccccc2)Oc2ccccc2)n1
98 | 225 to 226 | O=C1Cc2ccc(N3C(=O)C4=C(CCCC4)C3=O)cc2N1
99 | 64 to 65 | CC(C)(C)OC(=O)Nc1cc(N2CCC(OCCO)CC2)c(I)cc1[N+](=O)[O-]
